Measurements from patent US20090131449A1, “USE OF TRPV1 RECEPTOR ANTAGONISTS FOR TREATING DRY EYE AND OCULAR PAIN” (ALCON RESEARCH, LTD., priority 2007, published 2009).

Key:
[1] = system: mechanical blink response in normal rats; assay: corneal anesthetic activity, blinks induced by mechanical touch (Cochet-Bonnet Esthesiometer); type: in vivo, Sprague Dawley rats; conditions: rat; for inhibition of mechanical blink response / topical anesthetic activity (in words): 1% concentration; for Total number of Blinks/Total number of Touches: 20 μl topical ocular, N = 6/group; for Total number of Blinks/Total number of Touches / % Blocked (mechanical blink response): pretreatment 5 min; for % Blocked (mechanical blink response): topical ocular
Source text: Corneal anesthetic effects of TRPV1 antagonists were examined by analyzing suppression of blinks induced by mechanical touch. A Cochet-Bonnet Esthesiometer was used to determine corneal anesthetic activities of the TRPV1 antagonist, AMG-517 (AL-49975), in normal rats. Male Sprague Dawley rats (˜500 g) were divided into groups of 6 each, restrained in a DecapiCone rat restraint, and secured at the posterior with tape. A hole was cut into the cone to expose the right eye. Twenty-four hours prior to the experiment the eyelashes and whiskers were trimmed with scissors. The right eye was dosed with 20 μl of drug or maxidex vehicle, and the timer was set for 5 minutes to allow the rat time to acclimate. The Cochet-Bonnet Esthesiometer fiber was set at 30 mm and perpendicularly touched by a masked observer to the center of the cornea 10 times with a 3 second delay between counts. Blinks were counted with each touch of the fiber, and a total score out of 10 was recorded. If more than one blink occurred in response to a single touch, this event was counted as one blink response.

[2] = system: Formalin-Induced Blink Response in Rats; assay: formalin-induced blink response assay (ocular pain); type: in vivo, Sprague-Dawley rats; conditions: rat; for Number of Blinks/1 min Mean ± S.D.: 20 μL topical ocular, 0.1% formalin challenge; for Number of Blinks/1 min Mean ± S.D. / % Inhibition of formalin-induced blink response: pretreatment 5 min; for % Inhibition of formalin-induced blink response: topical ocular; for inhibition of formalin-induced blink response (in words): highest concentration tested (1%)
Method: The effects of two transient receptor potential vanilloid receptor subfamily, member 1 (TRPV1) antagonists on ocular pain in rats were tested using a formalin-induced blink response assay. Sprague-Dawley rats were treated topical ocular with 20 μL of vehicle (maxidex vehicle), N-{4-[6-(4-trifluoromethyl-phenyl)-pyrimidin-4-yloxy]-benzothiazol-2-yl}-acetamide (AL-49975, also known as AMG-517, Amgen Inc., Thousand Oaks, Calif.), or (R)—N-(4-(6-(4-(1-(4-fluorophenyl)ethyl)piperazin-1-yl)pyrimidin-4-yloxy)benzo[d]thiazol-2-yl)acetamide (AL-49976, also known as AMG-628, Amgen Inc., Thousand Oaks, Calif.) to one eye only. After the appropriate pretreatment time of about 5 minutes, 5 μL of 0.1% formalin was applied topical ocular. Each rat was placed in a clear plastic box, and the number of blinks was counted for 1 minute immediately following the formalin challenge.

[3] = 1% conc., *p < 0.05 Dunnett's t-test

SMILES | inhibition of mechanical blink response / topical anesthetic activity (in words) [1] | inhibition of mechanical blink response / topical anesthetic activity (in words) ([1]; listed as AMG-517) | Total number of Blinks/Total number of Touches ([1]; 1%) | % Blocked (mechanical blink response) ([1]; 1%) [%] | Number of Blinks/1 min Mean ± S.D. ([2]; 0.01% conc.) [Blinks/1 min] | % Inhibition of formalin-induced blink response ([2]; 0.01% conc.) [%] | Number of Blinks/1 min Mean ± S.D. ([2]; 0.1% conc.) [Blinks/1 min] | % Inhibition of formalin-induced blink response ([2]; 0.1% conc.) [%] | Number of Blinks/1 min Mean ± S.D. ([2]; 1% conc.) [Blinks/1 min] | % Inhibition of formalin-induced blink response [2, 3] | inhibition of formalin-induced blink response (in words) [2] | Total number of Blinks/Total number of Touches ([1]; 0.5%) | % Blocked (mechanical blink response) ([1]; 0.5%, *p < 0.01 Chi-squared vs. vehicle) | % Blocked (mechanical blink response) ([1]; 0.5%, *p < 0.01 Chi-squared vs. vehicle, listed as proparacaine) [%]
CC(=O)Nc1nc2c(Oc3cc(-c4ccc(C(F)(F)F)cc4)ncn3)cccc2s1 [AL-49975, N-{4-[6-(4-trifluoromethyl-phenyl)-pyrimidin-4-yloxy]-benzothiazol-2-yl}-acetamide] | did not significantly inhibit the blink response | did not have topical anesthetic activity | 54/60 | 10 | 58 ± 11 | 20 | 51 ± 18 | 29 | 44 ± 17 | 39* % | dose-dependent fashion, achieving significant inhibition | – | – | –
CC(=O)Nc1nc2c(Oc3cc(N4CCN([C@H](C)c5ccc(F)cc5)CC4)ncn3)cccc2s1 [AL-49976, (R)—N-(4-(6-(4-(1-(4-fluorophenyl)ethyl)piperazin-1-yl)pyrimidin-4-yloxy)benzo[d]thiazol-2-yl)acetamide] | – | – | – | – | 58 ± 7 | 19 | 66 ± 23 | 9 | 47 ± 11 | 35* % | significantly inhibited the pain response | – | – | –
CCCOc1ccc(C(=O)OCCN(CC)CC)cc1N [Alcaine, proparacaine, reference compound] | – | – | – | – | – | – | – | – | – | – | – | 2/60 | 97* % | 95
